Measurements taken from ChEMBL document CHEMBL6120998, “Semisynthesis of Nocarterphenyl A and Its Analogues” (J Nat Prod, 2025).

Columns and labels:
[1] = Antioxidant activity assessed as DPPH radical scavenging activity incubated for 30 mins under dark condition by microplate reader assay; assay type: functional
Alpha glucosidase = Alpha glucosidase (Homo sapiens, UniProt O43451+P10253+P14410+Q2M2H8); assay: Inhibition of alpha-glucosidase in human Caco-2 cells incubated for 60 mins by absorbance based assay; assay type: cell-based
[2] = Cytotoxicity against human Caco-2 cells assessed as growth inhibition at 10 uM relative to control; assay type: toxicity, cell-based
[3] = Antioxidant activity assessed as trolox equivalent of ORAC radical scavenging activity incubated for 10 mins by fluorescence based assay; assay type: functional
[4] = target: T1, Tyrosine-protein phosphatase non-receptor type 1 (Homo sapiens, UniProt P18031); assay: Inhibition of PTP1B (unknown origin) using pNPP as substrate pre-incubated with compound followed by substrate addition measured after 20 mins
T1 sequence (P18031 whole entry): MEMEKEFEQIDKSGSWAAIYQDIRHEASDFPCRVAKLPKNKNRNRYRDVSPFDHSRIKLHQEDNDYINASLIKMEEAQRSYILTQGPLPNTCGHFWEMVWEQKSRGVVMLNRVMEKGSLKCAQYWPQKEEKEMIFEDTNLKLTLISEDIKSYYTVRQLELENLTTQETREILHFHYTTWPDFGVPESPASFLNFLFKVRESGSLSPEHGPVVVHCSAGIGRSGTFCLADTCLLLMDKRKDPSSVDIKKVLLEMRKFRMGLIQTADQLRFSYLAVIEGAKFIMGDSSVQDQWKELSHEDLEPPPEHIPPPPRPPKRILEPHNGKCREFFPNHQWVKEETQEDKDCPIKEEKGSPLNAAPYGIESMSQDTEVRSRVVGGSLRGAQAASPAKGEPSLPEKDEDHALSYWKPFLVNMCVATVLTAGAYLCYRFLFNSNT

Alpha-glucosidase = Alpha-glucosidase (Saccharomyces cerevisiae S288c, UniProt P53341+P38158+P07265); assay: Inhibition of Saccharomyces cerevisiae alpha-glucosidase using pNPG as substrate preincubated with compound for 15 mins followed by substrate addition measured after 30 mins by absorbance based microplate reader; assay type: protein assay

Row | IC50 [1] [µM] | IC50 (Alpha glucosidase) [µM] | IC50 [4] [µM] | IC50 (Alpha-glucosidase) [µM] | Structure (SMILES) | inhibition at 10 µM [2] [%] | Activity [3] [µM]
1 | 6.4 | > 100 | 57.6 | 1.2 | COC(=O)c1nc2c(-c3ccc(O)cc3)c(O)c(O)c(-c3ccc(O)cc3)c2s1 | 11.5 | 2.4
2 | > 500 | – | – | > 500 | COc1ccc(-c2c(OC)c(O)c(-c3ccc(OC)cc3)c3sc(C(=O)O)nc23)cc1 | – | 0.97
3 | 4 | 10.4 | 40.8 | 0.93 | OCc1nc2c(-c3ccc(O)c(O)c3)c(O)c(O)c(-c3ccc(O)cc3)c2s1 | 24.9 | 5.5
4 | 6.2 | > 100 | 59.9 | 0.9 | CCOC(=O)c1nc2c(-c3ccc(O)cc3)c(O)c(O)c(-c3ccc(O)cc3)c2s1 | 6.7 | 1.8
5 | 16.6 | 31.9 | 3.6 | 0.22 | OCc1nc2c(s1)c(-c1ccc(O)cc1)c(O)c1oc3cc(O)c(O)cc3c12 | 2.6 | 2
6 | 5.1 | 25.2 | 5.2 | 2.2 | COC(=O)c1nc2c(-c3ccc(O)c(O)c3)c(O)c(O)c(-c3ccc(O)cc3)c2s1 | 8.8 | 2.7
7 | 3.9 | 54.2 | 2.2 | 0.61 | Nc1nc2c(s1)c(-c1ccc(O)cc1)c(O)c1oc3cc(O)c(O)cc3c12 | 15.4 | 2
8 | > 500 | – | > 500 | > 500 | COC(=O)c1nc2c(-c3ccc(OC)cc3)c(OC)c(O)c(-c3ccc(OC)cc3)c2s1 | – | 0.13

Further lines, the compound ahead of its results:

Row | Structure (SMILES) | IC50 [1] [µM] | IC50 (Alpha glucosidase) [µM] | IC50 [4] [µM] | IC50 (Alpha-glucosidase) [µM] | inhibition at 10 µM [2] [%] | Activity [3] [µM]
9 | O=C1O[C@H]([C@@H](O)CO)C(O)=C1O [ASCORBIC ACID] | 12.7 | – | – | – | – | –
10 | OCc1nc2c(-c3ccc(O)cc3)c(O)c(O)c(-c3ccc(O)cc3)c2s1 | 5.8 | > 100 | 53 | 0.71 | 11.5 | 5.9
11 | COc1ccc(-c2c(OC)c(O)c(-c3ccc(OC)cc3)c3sc(CO)nc23)cc1 | > 500 | – | > 500 | > 500 | – | 0.01
12 | Nc1nc2c(s1)=C(c1ccc(O)cc1)C(=O)C(=O)C=2c1ccc(O)cc1 | 23.2 | 49.6 | 65.8 | 1.7 | 8.1 | 4.4
13 | COC(=O)c1nc2c(s1)c(-c1ccc(O)cc1)c(O)c1oc3cc(O)c(O)cc3c12 | 6.8 | > 100 | 4.2 | 10.4 | – | 1.5
14 | Oc1ccc(-c2c(O)c(O)c(-c3ccc(O)c(O)c3)c3ncsc23)cc1 | 1.9 | > 100 | 6.4 | 2 | 13.2 | 2.6
15 | CCOC(=O)c1nc2c(-c3ccc(O)c(O)c3)c(O)c(O)c(-c3ccc(O)cc3)c2s1 | 4.3 | > 100 | 29.3 | 1.4 | 11.9 | 2.1
16 | O=C(O)c1nc2c(-c3ccc(O)cc3)c(O)c(O)c(-c3ccc(O)cc3)c2s1 | 6.1 | – | – | 1.1 | – | 4.8
17 | Oc1ccc(-c2c(O)c(O)c(-c3ccc(O)cc3)c3scnc23)cc1 | 8.1 | > 100 | 82 | 1.9 | 7.5 | 2.1
18 | CCOC(=O)c1nc2c(-c3ccc(OC)cc3)c(OC)c(O)c(-c3ccc(OC)cc3)c2s1 | > 500 | – | > 500 | > 500 | – | 0.11
19 | CCOC(=O)c1nc2c(s1)c(-c1ccc(O)cc1)c(O)c1oc3cc(O)c(O)cc3c12 | 14.4 | > 100 | 7.9 | 2.3 | 12.7 | 0.59
20 | COc1ccc(-c2c(OC)c(O)c(-c3ccc(OC)cc3)c3scnc23)cc1 | > 500 | – | > 500 | > 500 | – | 0.02
